The text below walks through data of patent publication US4043993A, “New pentapeptides and methods for their production” (Parke, Davis & Company, priority 1976, dated 1977).

Where “and” joins values, the source holds several entries; their conditions need not be identical. Equal entries are not always repeated. No end group written: not given here.

The assay relates to LRF (luteinizing hormone release factor) induced luteinizing hormone (LH) release. Nature of the assay: LRF antagonist activity in vitro in rat anterior pituitary cell cultures. Type of assay: cell-based. An excerpt: Pentapeptides of this invention were screened for LRF antagonist activity in vitro using rat anterior pituitary cell cultures as described by Vale et. al. [Endocrinology, 91, 562 (1972)]. The inhibition of LRF (luteinizing hormone release factor) induced luteinizing hormone (LH) release into the culture medium is the endpoint in this in vitro bioassay.

The mark [1] stands for this setting: Molar Conc. 1×10^-6, LRF Control 2.5×10^-10.
Setting [2] is: Molar Conc. 1×10^-7, LRF Control 3.5×10^-10.
Where [3] appears, read: Molar Conc. 2.5×10^-7, LRF Control 3.5×10^-10.
[4] abbreviates: Molar Conc. 6×10^-7, LRF Control 3.5×10^-10.
The mark [5] stands for this setting: Molar Conc. 6×10^-8, LRF Control 3.5×10^-10.

Regarding “LRF: luteinizing hormone releasing factor, also referred to as luteinizing hormone releasing hormone, or LH-RH; stimulates secretion of luteinizing hormone (QHWSYGLRPG; ends and bridges not checked; UniProt P01148 24-33, looked up) [reference compound]”, the “LH Value” is 38.98 ng/mL (LRF alone (LRF Control), Molar Conc. 2.5×10^-10); 33.78 ng/mL and 41.70 ng/mL and 58.17 ng/mL and 42.57 ng/mL (LRF alone (LRF Control), Molar Conc. 3.5×10^-10).
Regarding “N-Benzyloxycarbonyl-D-2-azetidinecarbonyl-N^im -benzyl-L-histidyl-O-benzyl-L-tyrosyl-O-benzyl-L-seryl-D-alanine methyl ester”, the “% LH Release Inhibition” value is reported as 102% under setting [1]; 53% under setting [2]; 78% under setting [3]; 89% under setting [4]; 29% under setting [5]. In addition, the “LH Value” is, setting by setting: under setting [1], 5.72 ng/mL; under setting [2], 33.60 ng/mL; under setting [3], 22.34 ng/mL; under setting [4], 17.18 ng/mL; under setting [5], 44.92 ng/mL.
